Numbers after ± are expanded uncertainties.
Conditions: Ring tensiometer

`CO` [methanol] showed a surface tension liquid-gas (279.11 K) of 23.87 ± 0.14 mN/m, a surface tension liquid-gas (282.59 K) of 23.63 ± 0.14 mN/m and a surface tension liquid-gas (288.3 K) of 23.14 ± 0.12 mN/m. It also gave a surface tension liquid-gas (293.37 K) of 22.73 ± 0.12 mN/m, a surface tension liquid-gas (296.97 K) of 22.43 ± 0.13 mN/m and a surface tension liquid-gas (301.54 K) of 21.99 ± 0.11 mN/m. The surface tension liquid-gas (307.31 K) was 21.43 ± 0.11 mN/m, the surface tension liquid-gas (311.76 K) was 21 ± 0.15 mN/m and the surface tension liquid-gas (317.66 K) was 20.43 ± 0.14 mN/m. For the same compound, the surface tension liquid-gas (322.9 K) was 19.83 ± 0.17 mN/m, the surface tension liquid-gas (326.56 K) was 19.42 ± 0.15 mN/m and the surface tension liquid-gas (330.01 K) was 19.09 ± 0.11 mN/m. The surface tension liquid-gas (333.81 K) was 18.63 ± 0.14 mN/m.
